Measurements published in ChEMBL document CHEMBL1149723, “Structures of four new triterpenoid oligoglycosides: DS-penaustrosides A, B, C, and D from the sea cucumber Pentacta australis” (J Nat Prod, 1992).
Values after ≈ are worked out from the molar mass of the structure shown.

Tests used:
[1] = tested on: KB; test: Cytotoxicity against human KB cells; format: functional, cell-based
[2] = tested on: L1210; test: Cytotoxicity against mouse L1210 cells; format: functional, cell-based

| SMILES | IC50 [1] [µg/mL] | IC50 [2] [µg/mL] |
| --- | --- | --- |
| C=C(C)CCC[C@](C)(O)[C@H]1CC[C@@]2(C)[C@@H]3CC[C@H]4C(C)(C)[C@@H](O[C@@H]5OC[C@@H](O)[C@H](O)[C@H]5O[C@@H]5O[C@H](C)[C@@H](O[C@@H]6O[C@H](CO)[C@@H](O)[C@H](O[C@@H]7O[C@H](CO)[C@@H](O)[C@H](OC)[C@H]7O)[C@H]6O)[C@H](O)[C@H]5O[C@@H]5OC[C@@H](O)[C@H](O)[C@H]5O)CC[C@]4(C)C3=CC[C@]12C [DS-PENAUSTROSIDE B] | 4.6 (≈ 3.86 µM) | 2.1 (≈ 1.76 µM) |
| CO[C@@H]1[C@@H](O)[C@H](O[C@@H]2[C@@H](O)[C@H](O[C@H]3[C@H](O)[C@@H](O[C@@H]4OC[C@@H](O)[C@H](O)[C@H]4O)[C@H](O[C@H]4[C@H](O[C@H]5CC[C@]6(C)C7=CC[C@]8(C)[C@@H]([C@@](C)(O)CCCC(C)C)CC[C@@]8(C)[C@@H]7CC[C@H]6C5(C)C)OC[C@@H](O)[C@@H]4O)O[C@@H]3C)O[C@H](CO)[C@H]2O)O[C@H](CO)[C@H]1O [DS-PENAUSTROSIDE A] | 0.62 (≈ 0.52 µM) | 0.12 (≈ 0.101 µM) |
